Data: ChEMBL document CHEMBL4507256 (2021)

Key:
[1] = target: T1, 5-hydroxytryptamine receptor 2C (Homo sapiens) (UniProt P28335); assay: 5-HT2C (h) CEREP ligand profiling; details: Compound concentration 10.0 uM
T1 sequence (whole entry): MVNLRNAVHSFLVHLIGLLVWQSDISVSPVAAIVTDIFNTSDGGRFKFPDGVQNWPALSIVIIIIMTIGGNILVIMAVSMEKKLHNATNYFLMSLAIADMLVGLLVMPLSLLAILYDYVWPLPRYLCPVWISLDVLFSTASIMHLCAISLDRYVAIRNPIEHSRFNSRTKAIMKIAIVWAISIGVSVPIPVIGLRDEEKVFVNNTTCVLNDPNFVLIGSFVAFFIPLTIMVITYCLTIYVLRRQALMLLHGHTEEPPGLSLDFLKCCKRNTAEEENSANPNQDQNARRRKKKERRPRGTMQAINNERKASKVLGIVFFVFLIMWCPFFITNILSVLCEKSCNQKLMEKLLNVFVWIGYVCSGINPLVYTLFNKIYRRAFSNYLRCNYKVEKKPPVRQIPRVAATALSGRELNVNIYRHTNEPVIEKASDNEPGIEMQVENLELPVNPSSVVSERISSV

[2] = target: D(1A) dopamine receptor (Homo sapiens) (UniProt P21728); assay: D1 (h) CEREP ligand profiling; details: Compound concentration 10.0 uM
[3] = target: Kappa-type opioid receptor (Cavia porcellus) (UniProt P41144); assay: kappa (guinea pig) CEREP ligand profiling; details: Compound concentration 10.0 uM
[4] = target: Thromboxane A2 receptor (Homo sapiens) (UniProt P21731); assay: TXA2/PGH2 CEREP ligand profiling; details: Compound concentration 10.0 uM
Thromboxane A2 receptor (Homo sapiens), sequence (P21731 whole entry): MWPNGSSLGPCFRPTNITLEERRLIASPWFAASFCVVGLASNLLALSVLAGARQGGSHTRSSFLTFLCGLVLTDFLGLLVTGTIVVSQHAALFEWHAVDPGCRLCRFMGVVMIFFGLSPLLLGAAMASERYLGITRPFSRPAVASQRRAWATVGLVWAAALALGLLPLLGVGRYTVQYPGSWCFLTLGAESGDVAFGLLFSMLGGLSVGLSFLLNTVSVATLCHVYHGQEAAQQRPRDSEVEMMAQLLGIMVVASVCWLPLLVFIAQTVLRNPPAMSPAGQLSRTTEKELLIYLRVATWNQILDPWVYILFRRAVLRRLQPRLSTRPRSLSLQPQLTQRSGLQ

[5] = target: GABA-A receptor; anion channel (Homo sapiens) (UniProt P14867+P47870+P18507+P28472+P48169+Q99928+Q9UN88+P34903+O00591+O14764+Q8N1C3+P18505+P78334+P47869+P31644+Q16445); assay: Cl- channel CEREP ligand profiling; type: protein-complex assay; details: Compound concentration 10.0 uM
[6] = target: Mu-type opioid receptor (Homo sapiens) (UniProt P35372); assay: mu (h) (MOP) CEREP ligand profiling; details: Compound concentration 10.0 uM
Mu-type opioid receptor (Homo sapiens), sequence (P35372 whole entry): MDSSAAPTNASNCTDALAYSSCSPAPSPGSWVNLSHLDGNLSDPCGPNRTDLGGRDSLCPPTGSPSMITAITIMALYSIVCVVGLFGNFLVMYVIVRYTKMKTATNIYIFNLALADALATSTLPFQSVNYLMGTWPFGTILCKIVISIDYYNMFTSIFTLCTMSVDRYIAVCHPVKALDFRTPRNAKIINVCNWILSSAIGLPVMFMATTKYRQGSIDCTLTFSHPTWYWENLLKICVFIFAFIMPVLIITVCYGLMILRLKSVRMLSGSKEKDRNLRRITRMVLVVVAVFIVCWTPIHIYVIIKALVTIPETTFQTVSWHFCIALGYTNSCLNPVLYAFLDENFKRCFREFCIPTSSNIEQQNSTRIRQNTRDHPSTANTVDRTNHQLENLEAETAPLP

[7] = target: Substance-P receptor (Homo sapiens) (UniProt P25103); assay: NK1 (h) CEREP ligand profiling; details: Compound concentration 10.0 uM
[8] = target: Beta-1 adrenergic receptor (Homo sapiens) (UniProt P08588); assay: beta1 (h) CEREP ligand profiling; details: Compound concentration 10.0 uM
Beta-1 adrenergic receptor (Homo sapiens), sequence (P08588 whole entry, looked up): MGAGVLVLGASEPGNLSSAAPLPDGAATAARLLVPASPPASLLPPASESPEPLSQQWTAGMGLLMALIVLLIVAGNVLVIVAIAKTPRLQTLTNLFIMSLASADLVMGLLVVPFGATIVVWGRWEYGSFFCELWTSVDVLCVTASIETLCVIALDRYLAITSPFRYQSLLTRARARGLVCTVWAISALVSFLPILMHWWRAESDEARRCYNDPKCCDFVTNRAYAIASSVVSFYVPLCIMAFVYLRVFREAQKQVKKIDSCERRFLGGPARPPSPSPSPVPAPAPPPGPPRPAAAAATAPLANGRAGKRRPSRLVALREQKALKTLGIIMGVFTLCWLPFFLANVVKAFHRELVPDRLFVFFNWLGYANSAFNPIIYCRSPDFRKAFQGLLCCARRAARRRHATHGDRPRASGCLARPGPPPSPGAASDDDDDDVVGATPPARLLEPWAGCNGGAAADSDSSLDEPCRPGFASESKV

[9] = target: Cannabinoid receptor 1 (Homo sapiens) (UniProt P21554); assay: CB1 (h) CEREP ligand profiling; details: Compound concentration 10.0 uM
Cannabinoid receptor 1 (Homo sapiens), sequence (P21554 whole entry): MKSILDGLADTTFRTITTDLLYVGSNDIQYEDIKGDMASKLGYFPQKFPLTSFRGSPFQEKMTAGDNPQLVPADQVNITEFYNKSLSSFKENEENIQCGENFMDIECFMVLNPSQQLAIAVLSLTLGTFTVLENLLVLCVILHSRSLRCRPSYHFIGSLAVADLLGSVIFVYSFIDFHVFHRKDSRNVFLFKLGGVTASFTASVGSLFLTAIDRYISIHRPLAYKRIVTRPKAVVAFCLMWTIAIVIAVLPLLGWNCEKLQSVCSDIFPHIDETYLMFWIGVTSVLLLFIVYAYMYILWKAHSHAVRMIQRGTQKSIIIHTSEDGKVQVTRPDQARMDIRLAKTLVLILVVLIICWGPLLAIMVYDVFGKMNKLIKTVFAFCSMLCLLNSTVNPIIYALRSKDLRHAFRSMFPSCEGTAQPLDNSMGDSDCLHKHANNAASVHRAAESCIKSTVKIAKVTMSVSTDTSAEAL

[10] = K+ channel CEREP ligand profiling; details: Compound concentration 10.0 uM
[11] = target: Endothelin-1 receptor (Homo sapiens) (UniProt P25101); assay: ETA (h) CEREP ligand profiling; details: Compound concentration 10.0 uM
[12] = target: Adenosine receptor A1 (Homo sapiens) (UniProt P30542); assay: A1 CEREP ligand profiling; details: Compound concentration 10.0 uM
Adenosine receptor A1 (Homo sapiens), sequence (P30542 whole entry): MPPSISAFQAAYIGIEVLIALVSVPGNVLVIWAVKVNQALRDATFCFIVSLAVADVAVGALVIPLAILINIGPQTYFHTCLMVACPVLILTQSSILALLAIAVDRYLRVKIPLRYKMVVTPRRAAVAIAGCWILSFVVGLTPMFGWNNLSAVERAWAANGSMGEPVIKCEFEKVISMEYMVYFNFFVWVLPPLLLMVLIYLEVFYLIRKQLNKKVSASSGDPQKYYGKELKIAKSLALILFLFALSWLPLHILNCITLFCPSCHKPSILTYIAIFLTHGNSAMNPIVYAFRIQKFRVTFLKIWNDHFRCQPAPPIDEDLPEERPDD

[13] = target: 5-hydroxytryptamine receptor 6 (Homo sapiens) (UniProt P50406); assay: 5-HT6 (h) CEREP ligand profiling; details: Compound concentration 10.0 uM
[14] = target: Neuropeptide Y receptor type 2 (Homo sapiens) (UniProt P49146); assay: Y2 (h) CEREP ligand profiling; details: Compound concentration 10.0 uM
Neuropeptide Y receptor type 2 (Homo sapiens), sequence (P49146 whole entry): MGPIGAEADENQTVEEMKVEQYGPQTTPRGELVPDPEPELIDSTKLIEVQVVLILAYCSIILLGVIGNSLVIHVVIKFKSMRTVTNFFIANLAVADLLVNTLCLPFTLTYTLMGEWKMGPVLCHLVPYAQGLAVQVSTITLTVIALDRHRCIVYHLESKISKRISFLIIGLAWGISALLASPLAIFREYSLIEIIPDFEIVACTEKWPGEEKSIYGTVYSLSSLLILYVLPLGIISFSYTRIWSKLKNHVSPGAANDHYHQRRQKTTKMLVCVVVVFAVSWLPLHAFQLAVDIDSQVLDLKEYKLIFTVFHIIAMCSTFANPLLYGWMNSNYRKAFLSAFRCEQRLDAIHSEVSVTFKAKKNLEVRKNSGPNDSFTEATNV

[15] = target: 5-hydroxytryptamine receptor 1B (Homo sapiens) (UniProt P28222); assay: 5-HT1B CEREP ligand profiling; details: Compound concentration 10.0 uM
5-hydroxytryptamine receptor 1B (Homo sapiens), sequence (P28222 whole entry): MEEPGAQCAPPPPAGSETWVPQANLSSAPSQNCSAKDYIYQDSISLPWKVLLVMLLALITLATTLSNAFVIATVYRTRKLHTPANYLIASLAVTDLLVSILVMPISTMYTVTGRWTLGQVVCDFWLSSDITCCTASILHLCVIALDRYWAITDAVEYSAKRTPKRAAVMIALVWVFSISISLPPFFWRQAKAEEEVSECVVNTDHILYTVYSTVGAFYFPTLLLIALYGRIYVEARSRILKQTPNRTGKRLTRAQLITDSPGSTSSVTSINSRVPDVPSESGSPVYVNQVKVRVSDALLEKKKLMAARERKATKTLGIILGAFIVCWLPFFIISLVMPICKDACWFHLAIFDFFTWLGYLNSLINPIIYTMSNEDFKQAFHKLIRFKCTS

[16] = target: C-X-C chemokine receptor type 2 (Homo sapiens) (UniProt P25025); assay: CXCR2 (h) CEREP ligand profiling; details: Compound concentration 10.0 uM
[17] = target: Sigma non-opioid intracellular receptor 1 (Homo sapiens, UniProt Q99720); assay: sigma CEREP ligand profiling; details: Compound concentration 10.0 uM
Sigma non-opioid intracellular receptor 1, sequence (Q99720 whole entry): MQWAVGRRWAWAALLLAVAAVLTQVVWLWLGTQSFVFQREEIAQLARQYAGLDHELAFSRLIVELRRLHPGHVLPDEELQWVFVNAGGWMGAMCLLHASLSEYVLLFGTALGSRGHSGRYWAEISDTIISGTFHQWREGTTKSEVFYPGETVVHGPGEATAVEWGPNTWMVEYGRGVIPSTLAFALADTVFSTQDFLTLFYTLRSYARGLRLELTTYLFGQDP

[18] = target: P2Y receptor (Homo sapiens) (UniProt Q9H244+P51582+P47900+P41231+Q15391+Q15077+Q96G91+Q9BPV8); assay: P2Y CEREP ligand profiling; type: protein assay; details: Compound concentration 10.0 uM
[19] = target: Na+ channel (sodium channel alpha subunit family) (Homo sapiens, UniProt P35498+P35499+Q01118+Q14524+Q15858+Q99250+Q9NY46+Q9UI33+Q9UQD0+Q9Y5Y9); assay: Na+ channel CEREP ligand profiling; type: protein assay; details: probe veratridine (ligand); compound concentration 10 uM
[20] = target: T2, Muscarinic acetylcholine receptor M2 (Homo sapiens) (UniProt P08172); assay: M2 (h) CEREP ligand profiling; details: Compound concentration 10.0 uM
T2 sequence (whole entry): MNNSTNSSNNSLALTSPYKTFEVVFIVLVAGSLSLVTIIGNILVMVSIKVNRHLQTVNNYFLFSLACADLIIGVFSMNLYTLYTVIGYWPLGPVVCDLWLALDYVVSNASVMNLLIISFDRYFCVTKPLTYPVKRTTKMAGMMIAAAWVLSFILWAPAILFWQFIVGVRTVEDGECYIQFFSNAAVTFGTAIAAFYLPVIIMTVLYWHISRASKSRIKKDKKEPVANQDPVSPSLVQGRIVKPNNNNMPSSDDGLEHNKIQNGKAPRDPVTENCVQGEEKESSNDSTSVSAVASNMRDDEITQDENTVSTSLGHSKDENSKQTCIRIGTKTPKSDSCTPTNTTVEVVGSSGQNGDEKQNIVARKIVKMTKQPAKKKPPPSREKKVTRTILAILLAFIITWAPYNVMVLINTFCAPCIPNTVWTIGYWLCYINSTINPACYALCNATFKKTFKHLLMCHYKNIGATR

[21] = target: C-C chemokine receptor type 1 (Homo sapiens) (UniProt P32246); assay: CCR1 (h) CEREP ligand profiling; details: Compound concentration 10.0 uM
[22] = target: Neurotensin receptor type 1 (Homo sapiens) (UniProt P30989); assay: NT1 (h) CEREP ligand profiling; details: Compound concentration 10.0 uM
[23] = target: Histamine H2 receptor (Homo sapiens) (UniProt P25021); assay: H2 (h) CEREP ligand profiling; details: Compound concentration 10.0 uM
Histamine H2 receptor (Homo sapiens), sequence (P25021 whole entry): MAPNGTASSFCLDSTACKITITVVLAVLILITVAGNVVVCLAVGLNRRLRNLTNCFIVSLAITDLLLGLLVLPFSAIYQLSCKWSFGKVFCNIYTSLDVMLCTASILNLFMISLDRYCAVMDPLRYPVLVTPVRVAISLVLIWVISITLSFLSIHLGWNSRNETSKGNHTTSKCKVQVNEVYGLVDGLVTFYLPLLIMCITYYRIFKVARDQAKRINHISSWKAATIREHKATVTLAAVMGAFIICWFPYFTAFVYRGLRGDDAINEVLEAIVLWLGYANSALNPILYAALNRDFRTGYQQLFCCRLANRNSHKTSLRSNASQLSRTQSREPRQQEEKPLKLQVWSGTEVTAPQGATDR

[24] = target: Rho-associated protein kinase 2 (Homo sapiens) (UniProt O75116); details: Compound concentration 1000.0 nM
[25] = target: Transient receptor potential cation channel subfamily A member 1 (Homo sapiens, UniProt O75762); assay: Fluorometric imaging plate reader (FLIPR)-based Ca2+ assay; parameters: compound concentration 0.03-0.3 uM
Transient receptor potential cation channel subfamily A member 1, sequence (O75762 whole entry): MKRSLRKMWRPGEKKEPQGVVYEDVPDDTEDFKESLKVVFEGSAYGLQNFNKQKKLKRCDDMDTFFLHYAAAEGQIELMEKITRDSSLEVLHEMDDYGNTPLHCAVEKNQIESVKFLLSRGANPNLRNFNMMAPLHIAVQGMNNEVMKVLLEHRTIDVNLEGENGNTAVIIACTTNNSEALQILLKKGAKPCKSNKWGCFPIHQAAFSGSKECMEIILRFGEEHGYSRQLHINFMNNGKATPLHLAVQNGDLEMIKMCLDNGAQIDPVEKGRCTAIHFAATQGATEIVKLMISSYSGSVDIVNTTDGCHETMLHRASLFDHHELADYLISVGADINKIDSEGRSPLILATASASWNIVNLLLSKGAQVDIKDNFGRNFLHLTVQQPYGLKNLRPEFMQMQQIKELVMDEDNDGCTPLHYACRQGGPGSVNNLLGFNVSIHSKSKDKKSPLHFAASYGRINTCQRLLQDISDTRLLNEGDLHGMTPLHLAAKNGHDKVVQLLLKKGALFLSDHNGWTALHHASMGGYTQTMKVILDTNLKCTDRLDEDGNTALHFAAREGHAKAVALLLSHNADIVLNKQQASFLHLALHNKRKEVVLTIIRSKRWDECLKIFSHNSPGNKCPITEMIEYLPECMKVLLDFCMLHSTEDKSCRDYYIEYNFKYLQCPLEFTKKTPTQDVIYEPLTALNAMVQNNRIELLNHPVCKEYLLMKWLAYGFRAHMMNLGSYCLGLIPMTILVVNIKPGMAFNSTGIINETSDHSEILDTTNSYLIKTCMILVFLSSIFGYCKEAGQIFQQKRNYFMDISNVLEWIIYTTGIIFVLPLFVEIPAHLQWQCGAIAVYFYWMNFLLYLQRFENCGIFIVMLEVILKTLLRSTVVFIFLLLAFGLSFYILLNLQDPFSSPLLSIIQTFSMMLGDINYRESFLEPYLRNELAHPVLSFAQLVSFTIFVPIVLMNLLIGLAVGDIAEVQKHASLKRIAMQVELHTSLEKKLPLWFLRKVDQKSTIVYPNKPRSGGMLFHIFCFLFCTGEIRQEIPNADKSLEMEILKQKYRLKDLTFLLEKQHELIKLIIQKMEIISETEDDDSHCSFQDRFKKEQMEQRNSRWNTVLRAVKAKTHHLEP

[26] = target: Beta-1 adrenergic receptor (Homo sapiens) (UniProt P08588); details: Compound concentration 10.0 uM
[27] = target: Serine/threonine-protein kinase 17A (Homo sapiens) (UniProt Q9UEE5); details: Compound concentration 1000.0 nM
Serine/threonine-protein kinase 17A (Homo sapiens), sequence (Q9UEE5 whole entry): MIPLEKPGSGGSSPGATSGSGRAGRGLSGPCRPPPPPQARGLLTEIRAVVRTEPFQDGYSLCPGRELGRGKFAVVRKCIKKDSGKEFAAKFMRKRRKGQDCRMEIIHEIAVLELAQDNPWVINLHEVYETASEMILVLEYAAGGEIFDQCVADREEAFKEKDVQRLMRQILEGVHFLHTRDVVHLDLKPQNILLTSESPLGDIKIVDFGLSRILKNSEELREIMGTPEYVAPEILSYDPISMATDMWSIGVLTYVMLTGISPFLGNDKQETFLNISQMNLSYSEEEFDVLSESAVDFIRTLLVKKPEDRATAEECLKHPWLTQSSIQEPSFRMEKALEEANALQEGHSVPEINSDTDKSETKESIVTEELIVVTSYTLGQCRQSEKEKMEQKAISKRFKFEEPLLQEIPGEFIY

[28] = target: Misshapen-like kinase 1 (Homo sapiens) (UniProt Q8N4C8); details: Compound concentration 1000.0 nM
[29] = target: Casein kinase I isoform gamma-3 (Homo sapiens) (UniProt Q9Y6M4); details: Compound concentration 1000.0 nM

Which results are given for `CCC(=N\O)/C(C)=C/c1ccc(F)cc1` [A-079]?
inhibition [1]: 6%; inhibition [2]: 6%; inhibition [3]: -4%; inhibition [4]: 6%; inhibition [5]: 26%; inhibition [6]: 12%; inhibition [7]: -3%; inhibition [8]: -2%; inhibition [9]: 3%; inhibition [10]: -8%; inhibition [11]: 5%; inhibition [12]: 8%; inhibition [13]: 0%; inhibition [14]: 13%; inhibition [15]: 14%; inhibition [16]: -1%; inhibition [17]: -2%; inhibition [18]: 7%; inhibition at 10 µM [19]: 17% (not active); inhibition [20]: 13%; inhibition [21]: 1%; inhibition [22]: -5%; inhibition [23]: 3%

What does the source list for `CCC(=N\O)/C(C)=C/c1ccc(F)c(C)c1` [A-226]?
residual activity [24]: 100%; IC50 [25]: > 100 µM (not active); inhibition [26]: 10.2%; residual activity [27]: 73%; residual activity [28]: 92%; residual activity [29]: 100%
